Data as given in patent US20140187548A1, “6 SUBSTITUTED IMIDAZOPYRAZINES FOR USE AS MPS-1 AND TKK INHIBITORS IN THE TREATMENT OF HYPERPROLIFERATIVE DISORDERS” (BAYER INTELLECTUAL PROPERTY GMBH, priority 2010, published 2014).

Target: T1, human kinase Mps-1 (Homo sapiens, UniProt P33981)
T1 construct: N-terminally GST-tagged human full length recombinant Mps-1 kinase; GST (N); purchased Invitrogen, Karslruhe, Germany PV4071
T1 sequence (P33981 1-857): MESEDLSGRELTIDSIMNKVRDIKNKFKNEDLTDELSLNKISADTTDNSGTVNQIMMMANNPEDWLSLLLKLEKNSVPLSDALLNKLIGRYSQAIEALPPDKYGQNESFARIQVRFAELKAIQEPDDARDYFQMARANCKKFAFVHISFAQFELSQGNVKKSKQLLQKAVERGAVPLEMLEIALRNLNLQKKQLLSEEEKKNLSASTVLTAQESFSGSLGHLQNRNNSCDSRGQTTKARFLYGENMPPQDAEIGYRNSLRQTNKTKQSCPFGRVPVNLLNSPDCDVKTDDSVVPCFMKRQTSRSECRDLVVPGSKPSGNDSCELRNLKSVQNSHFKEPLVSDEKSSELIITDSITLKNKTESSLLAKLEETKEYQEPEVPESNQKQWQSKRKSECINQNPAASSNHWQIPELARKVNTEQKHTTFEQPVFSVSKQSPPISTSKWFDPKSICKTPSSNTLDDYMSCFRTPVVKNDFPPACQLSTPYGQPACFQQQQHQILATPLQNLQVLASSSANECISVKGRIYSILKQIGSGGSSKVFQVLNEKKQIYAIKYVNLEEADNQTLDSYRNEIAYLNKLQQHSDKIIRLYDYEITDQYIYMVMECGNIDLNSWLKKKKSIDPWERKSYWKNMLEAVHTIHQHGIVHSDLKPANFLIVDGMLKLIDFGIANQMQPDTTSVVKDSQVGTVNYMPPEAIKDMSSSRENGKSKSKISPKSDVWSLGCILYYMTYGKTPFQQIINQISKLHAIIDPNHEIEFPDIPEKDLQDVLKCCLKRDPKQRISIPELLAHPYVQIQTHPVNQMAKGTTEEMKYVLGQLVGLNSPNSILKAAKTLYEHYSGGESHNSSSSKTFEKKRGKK
Experiment: Mps-1 kinase assay (TR-FRET)
Assay type: biochemical
Conditions: N-terminally GST-tagged human full length recombinant Mps-1; 10 μM ATP; 1 μM peptide substrate; 15 min pre-incubation; 60 min at 22° C.
In short: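 TR-FRET read-out: after 1 h binding at 22° C, Eu-labelled anti-phospho-Ser/Thr antibody transfers to SA-XLent on the phosphorylated biotinylated peptide. The enzyme is GST-tagged full-length human Mps-1, typically about 1 nM final, in the linear range.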

| IC50 [nM] | SMILES |
| --- | --- |
| 2.7 | O=C(NC1CC1)c1ccc(-c2cnc3c(NCCO)nc(-c4ccccc4)cn23)cc1 [Example 2-1, N-cyclopropyl-4-{8-[(2-hydroxyethyl)amino]-6-phenylimidazo[1,2-a]pyrazin-3-yl}benzamide] |
| 2.1 | O=C(NC1CC1)c1ccc(-c2cnc3c(NCC4CCCO4)nc(-c4ccccc4)cn23)cc1 (stereo not drawn) [Example 2-8, N-cyclopropyl-4-{6-phenyl-8-[(tetrahydrofuran-2-ylmethyl)amino]imidazo[1,2-a]pyrazin-3-yl}benzamide] |
| 7.2 | Cc1cc(-c2cnc3c(NCC4CC(=O)N(C)C4)nc(-c4ccc(F)cc4)cn23)ccc1C(=O)NC1CC1 (stereo not drawn) [Example 10-13, N-cyclopropyl-4-[6-(4-fluorophenyl)-8-{[(1-methyl-5-oxopyrrolidin-3-yl)methyl]amino}imidazo[1,2-a]pyrazin-3-yl]-2-methylbenzamide] |
| 2.8 | O=C(NC1CC1)c1ccc(-c2cnc3c(NCC(F)(F)F)nc(-c4ccccc4)cn23)cc1 [Example 2-85, N-cyclopropyl-4-{6-phenyl-8-[(2,2,2-trifluoroethyl)amino]imidazo[1,2-a]pyrazin-3-yl}benzamide] |
| 20 | O=C(NC1CC1)c1ccc(-c2cnc3c(NCCN4CCNC4=O)nc(-c4ccccc4)cn23)cc1 [Example 2-47, N-cyclopropyl-4-(8-{[2-(2-oxoimidazolidin-1-yl)ethyl]amino}-6-phenylimidazo[1,2-a]pyrazin-3-yl)benzamide] |
| 2.7 | O=C(NC1CC1)c1ccc(-c2cnc3c(NCC4CC4)nc(-c4ccccc4)cn23)cc1 [Example 2-23, N-cyclopropyl-4-{8-[(cyclo-propylmethyl)amino]-6-phenylimidazo[1,2-a]pyrazin-3-yl}benzamide] |
| 28.4 | O=C(NC1CC1)c1ccc(-c2cnc3c(NCCCN4CCCC4)nc(-c4ccccc4)cn23)cc1 [Example 2-36, N-cyclopropyl-4-(6-phenyl-8-{[3-(pyrrolidin-1-yl)propyl]amino}imidazo[1,2-a]pyrazin-3-yl)benzamide] |
| 5.6 | O=C(NC1CC1)c1ccc(-c2cnc3c(NCCc4nccs4)nc(-c4ccccc4)cn23)cc1 [Example 2-63, N-cyclopropyl-4-(6-phenyl-8-{[2-(1,3-thiazol-2-yl)ethyl]amino}imidazo[1,2-a]pyrazin-3-yl)benzamide] |
| 5.1 | Cc1cc(-c2cnc3c(NCC(C)C)nc(-c4ccc(F)cc4)cn23)ccc1C(=O)NC1CC1 [Example 10-3, N-cyclopropyl-4-{6-(4-fluorophenyl)-8-[(2-methylpropyl)amino]imidazo[1,2-a]pyrazin-3-yl}-2-methylbenzamide] |
| 14.1 | CCN(CC)CCCCNc1nc(-c2ccccc2)cn2c(-c3ccc(C(=O)NC4CC4)cc3)cnc12 [Example 2-37, N-cyclopropyl-4-(8-{[4-(diethylamino)butyl]amino}-6-phenylimidazo[1,2-a]pyrazin-3-yl)benzamide] |
| 1.1 | CC(C)CNc1nc(-c2ccc(C(C)O)cc2)cn2c(-c3ccc(C(=O)NC4CC4)cc3)cnc12 (racemic) [Example 6-2, (RS)N-cyclopropyl-4-{6-[4-(1-hydroxyethyl)phenyl]-8-(isobutylamino)imidazo[1,2-a]pyrazin-3-yl}benzamide] |

More lines, now with the values behind:

| SMILES | IC50 [nM] |
| --- | --- |
| CSc1ccccc1-c1cn2c(-c3ccc(C(=O)NC4CC4)cc3)cnc2c(NCC(C)C)n1 [Example 1-70, N-cyclopropyl-4-{8-[(2-methylpropyl)amino]-6-[2-(methylsulfanyl)phenyl]imidazo[1,2-a]pyrazin-3-yl}benzamide] | 3.2 |
| CC(C)CNc1nc(-c2cc(Cl)cc(Cl)c2)cn2c(-c3ccc(C(=O)NC4CC4)cc3)cnc12 [Example 1-10, N-cyclopropyl-4-{6-(3,5-dichlorophenyl)-8-[(2-methylpropyl)amino]imidazo[1,2-a]pyrazin-3-yl}benzamide] | 1110 |
| CC(C)CNc1nc(-c2ccc(C(F)(F)F)cc2)cn2c(-c3ccc(C(=O)NC4CC4)cc3)cnc12 [Example 1-36, N-cyclopropyl-4-{8-[(2-methylpropyl)amino]-6-[4-(trifluoromethyl)phenyl]imidazo[1,2-a]pyrazin-3-yl}benzamide] | 30 |
| CC(C)CNc1nc(-c2ccc(F)cc2)cn2c(-c3ccc(C(=O)NC4CC4)c(Cl)c3)cnc12 [Example 1-93, 2-chloro-N-cyclopropyl-4-{6-(4-fluorophenyl)-8-[(2-methylpropyl)amino]imidazo[1,2-a]pyrazin-3-yl}benzamide] | 18 |
| CC(C)CNc1nc(-c2ccc([N+](=O)[O-])cc2)cn2c(-c3ccc(C(=O)NC4CC4)cc3)cnc12 [Example 1-61, N-cyclopropyl-4-{8-[(2-methylpropyl)amino]-6-(4-nitrophenyl)imidazo [1,2-a]pyrazin-3-yl} benzamide] | 2 |
| CC(C)CNc1nc(-c2ccc(Oc3ccccc3)cc2)cn2c(-c3ccc(C(=O)NC4CC4)cc3)cnc12 [Example 1-47, N-cyclopropyl-4-{8-[(2-methylpropyl)amino]-6-(4-phenoxyphenyl)imidazo[1,2-a]pyrazin-3-yl}benzamide] | 78.9 |
| CC(C)CNc1nc(-c2ccc3cc[nH]c3c2)cn2c(-c3ccc(C(=O)NC4CC4)cc3)cnc12 [Example 1-23, N-cyclopropyl-4-{6-(1H-indol-6-yl)-8-[(2-methyl-propyl)amino]imidazo [1,2-a]pyrazin-3-yl} benzamide] | 21 |
| CN(C)c1ccc(-c2cn3c(-c4ccc(C(=O)NC5CC5)c(F)c4)cnc3c(NCc3ccnn3C)n2)cc1 [Example 1-120, N-cyclopropyl-4-(6-[4-(dimethylamino)phenyl]-8-{[(1-methyl-1H-pyrazol-5-yl)methyl]amino}imidazo[1,2-a]pyrazin-3-yl)-2-fluorobenzamide] | 16.8 |
| CC(C)CNc1nc(-c2ccc(F)c(C(=O)NC(C)C)c2)cn2c(-c3ccc(C(=O)NC4CC4)cc3)cnc12 [Example 1-85, 5-{3-[4-(cyclopropyl-carbamoyl)phenyl]-8-[(2-methylpropyl)amino]imidazo[1,2-a]pyrazin-6-yl}-2-fluoro-N-(propan-2-yl)benzamide] | 2.6 |
| CNC(=O)c1cccc(-c2cn3c(-c4ccc(C(=O)NC5CC5)cc4)cnc3c(NCC(C)C)n2)c1 [Example 1-33, 3-{3-[4-(cyclopropyl-carbamoyl)phenyl]-8-[(2-methylpropyl)amino]imidazo[1,2-a]pyrazin-6-yl}-N-methylbenzamide] | 1.4 |
| CC(C)CNc1nc(-c2ccc(C(=O)N(C)C)cc2)cn2c(-c3ccc(C(=O)NC4CC4)cc3)cnc12 [Example 1-16, 4-{3-[4-(cyclopropyl-carbamoyl)phenyl]-8-[(2-methylpropyl)amino]imidazo[1,2-a]pyrazin-6-yl}-N,N-dimethyl-benzamide] | 2.7 |
| CSc1ccc(-c2cn3c(-c4ccc(C(=O)NC5CC5)cc4)cnc3c(NCC(C)C)n2)cc1 [Example 1-18, N-cyclopropyl-4-{8-[(2-methylpropyl)amino]-6-[4-(methylsulfanyl)phenyl]imidazo[1,2-a]pyrazin-3-yl}benzamide] | 8.5 |
| CC(C)CNc1nc(-c2cccc3ccccc23)cn2c(-c3ccc(C(=O)NC4CC4)cc3)cnc12 [Example 1-4, N-cyclopropyl-4-{8-[(2-methylpropyl)amino]-6-(naphthalen-1-yl)imidazo[1,2-a]pyrazin-3-yl}benzamide] | 4.6 |
